In patent US9868772B2 (INDIANA UNIVERSITY RESEARCH AND TECHNOLOGY CORPORATION, priority 2012, dated 2018):
Numbered stars: 1 amine (or outer) side, 2 acyl side, 3 side chain; on linkers, the order of the positions; unused ones are H or OH. Square brackets hold non-standard residues; d marks the D form. Side chains are listed from the residue outwards. Peptide text beside a SMILES is read from it. * marks the point of attachment. γGlu = O=C(O)[C@H](CCC(=O)[*:2])N[*:1]; Desaminotyrosyl = O=C(CCc1ccc(O)cc1)*; Palmitoyl = CCCCCCCCCCCCCCCC(=O)*

Tests used:
Assay in all cases: cAMP induction, firefly luciferase reporter assay in HEK293 cells co-transfected with receptor
Format in all cases: cell-based
[1] = biological target: T1, GIP receptor (Homo sapiens, UniProt P48546)
T1 construct: expressed in transfected cells; host or cells: HEK293
T1 sequence (P48546 22-466): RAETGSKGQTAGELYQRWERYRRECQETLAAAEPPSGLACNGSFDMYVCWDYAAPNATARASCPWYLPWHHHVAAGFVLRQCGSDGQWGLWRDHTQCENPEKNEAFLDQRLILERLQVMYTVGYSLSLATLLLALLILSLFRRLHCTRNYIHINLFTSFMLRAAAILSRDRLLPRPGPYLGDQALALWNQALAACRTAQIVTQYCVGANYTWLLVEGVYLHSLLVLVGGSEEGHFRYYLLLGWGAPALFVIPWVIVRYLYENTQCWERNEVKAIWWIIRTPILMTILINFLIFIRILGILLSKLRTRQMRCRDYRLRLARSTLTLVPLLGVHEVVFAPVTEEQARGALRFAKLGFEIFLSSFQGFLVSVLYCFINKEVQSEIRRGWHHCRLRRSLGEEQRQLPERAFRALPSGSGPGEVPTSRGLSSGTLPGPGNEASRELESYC
Description: (§1) The ability of glucagon analogs to induce cAMP was measured in a firefly luciferase-based reporter assay. […] At the end of the incubation 100 microliters of LucLite luminescence substrate reagent (Perkin-Elmer, Wellesley, Mass.) were added to each well. […] Effective 50% concentrations were calculated by using Origin software (OriginLab, Northampton, Mass.

[2] = biological target: T2, GLP-1 receptor (Homo sapiens, UniProt P43220)
T2 construct: expressed in transfected cells; host or cells: HEK293
Description: as §1

[3] = biological target: T3, glucagon receptor (Homo sapiens, UniProt P47871)
T3 construct: expressed in transfected cells; host or cells: HEK293
Description: as §1

[4] = Table 1, analogs of SEQ ID NO: 37
[5] = Table 3, analogs of SEQ ID NO: 12
[6] = Table 2, analogs of SEQ ID NO: 10

T2 sequence (P43220 24-463): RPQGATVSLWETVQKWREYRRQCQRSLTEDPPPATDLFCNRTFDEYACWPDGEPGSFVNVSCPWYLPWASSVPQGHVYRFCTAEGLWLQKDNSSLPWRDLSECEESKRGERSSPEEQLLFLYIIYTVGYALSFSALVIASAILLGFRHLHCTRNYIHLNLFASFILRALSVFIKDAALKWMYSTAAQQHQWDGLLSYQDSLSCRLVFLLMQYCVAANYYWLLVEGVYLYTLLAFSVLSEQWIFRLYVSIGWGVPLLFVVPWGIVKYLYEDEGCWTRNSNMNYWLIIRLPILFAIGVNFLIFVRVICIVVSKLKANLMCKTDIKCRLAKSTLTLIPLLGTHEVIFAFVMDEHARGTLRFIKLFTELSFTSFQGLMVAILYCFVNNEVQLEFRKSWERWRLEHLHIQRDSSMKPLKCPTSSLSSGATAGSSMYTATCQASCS
T3 sequence (P47871 26-477): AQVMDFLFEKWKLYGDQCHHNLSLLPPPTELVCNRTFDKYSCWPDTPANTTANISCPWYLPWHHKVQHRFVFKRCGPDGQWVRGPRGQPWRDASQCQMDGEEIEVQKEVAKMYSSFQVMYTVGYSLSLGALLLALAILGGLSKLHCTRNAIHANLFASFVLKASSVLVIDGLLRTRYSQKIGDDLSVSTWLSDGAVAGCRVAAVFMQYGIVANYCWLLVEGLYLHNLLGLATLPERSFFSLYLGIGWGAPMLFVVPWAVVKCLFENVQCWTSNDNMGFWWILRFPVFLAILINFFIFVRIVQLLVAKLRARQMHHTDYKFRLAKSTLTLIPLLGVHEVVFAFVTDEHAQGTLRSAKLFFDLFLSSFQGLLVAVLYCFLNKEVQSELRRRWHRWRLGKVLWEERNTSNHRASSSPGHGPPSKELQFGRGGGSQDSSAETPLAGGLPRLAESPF

SMILES	EC50 [1, 4] [pM]	EC50 [2, 4] [pM]	EC50 [3, 4] [pM]	EC50 [1, 6] [pM]	EC50 [2, 6] [pM]	EC50 [3, 6] [pM]	further results
CCCCCCCCCCCCCCCC(=O)N[C@@H](CCC(=O)NCCCC[C@H](NC(=O)[C@H](CC(=O)O)NC(=O)[C@H](CO)NC(=O)[C@@H](NC(=O)[C@H](Cc1ccccc1)NC(=O)[C@@H](NC(=O)CNC(=O)[C@H](CCC(N)=O)NC(=O)[C@H](C)NC(=O)[C@@H](Cc1ccc(O)cc1)NC(C)=O)[C@@H](C)O)[C@@H](C)O)C(=O)N[C@@H](CO)C(=O)N[C@@H](CCCCN)C(=O)N[C@@H](Cc1ccc(O)cc1)C(=O)N[C@@H](CC(C)C)C(=O)N[C@@H](CC(=O)O)C(=O)N[C@@H](CCC(=O)O)C(=O)N[C@@H](CCCNC(=N)N)C(=O)N[C@@H](C)C(=O)N[C@@H](C)C(=O)N[C@@H](CCC(N)=O)C(=O)N[C@@H](CC(=O)O)C(=O)N[C@@H](Cc1ccccc1)C(=O)N[C@H](C(=O)N[C@@H](CCC(N)=O)C(=O)N[C@@H](Cc1c[nH]c2ccccc12)C(=O)N[C@@H](CC(C)C)C(=O)N[C@@H](CC(C)C)C(=O)N[C@@H](CCC(=O)O)C(=O)NCC(=O)NCC(=O)N1CCC[C@H]1C(=O)N[C@@H](CO)C(=O)N[C@@H](CO)C(=O)NCC(=O)N[C@@H](C)C(=O)N1CCC[C@H]1C(=O)N1CCC[C@H]1C(=O)N1CCC[C@H]1C(=O)N[C@@H](CO)C(N)=O)C(C)C)C(=O)O [compound 12]	2	3	7	–	–	–	–
CCCCCCCCCCCCCCCC(=O)N[C@@H](CCC(=O)NCCCC[C@H](NC(=O)[C@H](CC(=O)O)NC(=O)[C@H](CO)NC(=O)[C@@H](NC(=O)[C@H](Cc1ccccc1)NC(=O)[C@@H](NC(=O)CNC(=O)[C@H](CCC(N)=O)NC(=O)CNC(=O)[C@@H](Cc1ccc(O)cc1)NC(C)=O)[C@@H](C)O)[C@@H](C)O)C(=O)N[C@@H](CO)C(=O)N[C@@H](CCCCN)C(=O)N[C@@H](Cc1ccc(O)cc1)C(=O)N[C@@H](CC(C)C)C(=O)N[C@@H](CC(=O)O)C(=O)N[C@@H](CCC(=O)O)C(=O)N[C@@H](CCCNC(=N)N)C(=O)N[C@@H](C)C(=O)N[C@@H](C)C(=O)N[C@@H](CCC(N)=O)C(=O)N[C@@H](CC(=O)O)C(=O)N[C@@H](Cc1ccccc1)C(=O)N[C@H](C(=O)N[C@@H](CCC(N)=O)C(=O)N[C@@H](Cc1c[nH]c2ccccc12)C(=O)N[C@@H](CC(C)C)C(=O)N[C@@H](CC(C)C)C(=O)N[C@@H](CCC(=O)O)C(=O)NCC(=O)NCC(=O)N1CCC[C@H]1C(=O)N[C@@H](CO)C(=O)N[C@@H](CO)C(=O)NCC(=O)N[C@@H](C)C(=O)N1CCC[C@H]1C(=O)N1CCC[C@H]1C(=O)N1CCC[C@H]1C(=O)N[C@@H](CO)C(N)=O)C(C)C)C(=O)O [compound 14] (Ac-[dY]GQGTFTSDK([γGlu-Palmitoyl])SKYLDERAAQDFVQWLLEGGPSSGAPPPS-NH2)	5	22	5	–	–	–	–
CCCCCCCCCCCCCCCC(=O)N[C@@H](CCC(=O)NCCCC[C@H](NC(=O)[C@H](CC(=O)O)NC(=O)[C@H](CO)NC(=O)[C@@H](NC(=O)[C@H](Cc1ccccc1)NC(=O)[C@@H](NC(=O)CNC(=O)[C@H](CCC(N)=O)NC(=O)[C@H](C)NC(=O)[C@@H](Cc1ccc(O)cc1)NC(C)=O)[C@@H](C)O)[C@@H](C)O)C(=O)N[C@@H](CO)C(=O)N[C@@H](CCCCN)C(=O)N[C@@H](Cc1ccc(O)cc1)C(=O)N[C@@H](CC(C)C)C(=O)N[C@@H](CC(=O)O)C(=O)N[C@@H](CCC(=O)O)C(=O)N[C@@H](CCCNC(=N)N)C(=O)N[C@@H](C)C(=O)N[C@@H](C)C(=O)N[C@@H](CCC(N)=O)C(=O)N[C@@H](CC(=O)O)C(=O)N[C@@H](Cc1ccccc1)C(=O)N[C@H](C(=O)N[C@@H](CCC(N)=O)C(=O)N[C@@H](Cc1c[nH]c2ccccc12)C(=O)N[C@@H](CC(C)C)C(=O)N[C@@H](CC(C)C)C(=O)N[C@@H](CC(=O)O)C(=O)N[C@@H](C)C(=O)NCC(=O)N1CCC[C@H]1C(=O)N[C@@H](CO)C(=O)N[C@@H](CO)C(=O)NCC(=O)N[C@@H](C)C(=O)N1CCC[C@H]1C(=O)N1CCC[C@H]1C(=O)N1CCC[C@H]1C(=O)N[C@@H](CO)C(N)=O)C(C)C)C(=O)O [compound 143] (Ac-[dY]AQGTFTSDK([γGlu-Palmitoyl])SKYLDERAAQDFVQWLLDAGPSSGAPPPS-NH2)	–	–	–	–	–	–	EC50 [1, 5]: 3 pM; EC50 [2, 5]: 3 pM; EC50 [3, 5]: 4 pM
CCCCCCCCCCCCCCCC(=O)N[C@@H](CCC(=O)NCCCC[C@H](NC(=O)[C@H](CC(=O)O)NC(=O)[C@H](CO)NC(=O)[C@@H](NC(=O)[C@H](Cc1ccccc1)NC(=O)[C@@H](NC(=O)CNC(=O)[C@@H](CCC(N)=O)NC(=O)[C@H](C)NC(=O)[C@H](Cc1ccc(O)cc1)NC(C)=O)[C@@H](C)O)[C@@H](C)O)C(=O)N[C@@H](CO)C(=O)N[C@@H](CCCCN)C(=O)N[C@@H](Cc1ccc(O)cc1)C(=O)N[C@@H](CC(C)C)C(=O)N[C@@H](CC(=O)O)C(=O)N[C@@H](CCC(=O)O)C(=O)N[C@@H](CCCNC(=N)N)C(=O)N[C@@H](C)C(=O)N[C@@H](C)C(=O)N[C@@H](CCC(N)=O)C(=O)N[C@@H](CC(=O)O)C(=O)N[C@@H](Cc1ccccc1)C(=O)N[C@H](C(=O)N[C@@H](CCC(N)=O)C(=O)N[C@@H](Cc1c[nH]c2ccccc12)C(=O)N[C@@H](CC(C)C)C(=O)N[C@@H](CC(C)C)C(=O)N[C@@H](CCC(=O)O)C(=O)NCC(=O)NCC(=O)N1CCC[C@H]1C(=O)N[C@@H](CO)C(=O)N[C@@H](CO)C(=O)NCC(=O)N[C@@H](C)C(=O)N1CCC[C@H]1C(=O)N1CCC[C@H]1C(=O)N1CCC[C@H]1C(=O)N[C@@H](CO)C(N)=O)C(C)C)C(=O)O [compound 158] (Ac-YA[dQ]GTFTSDK([γGlu-Palmitoyl])SKYLDERAAQDFVQWLLEGGPSSGAPPPS-NH2)	–	–	–	69	349	416	–
CCCCCCCCCCCCCCCC(=O)N[C@@H](CCC(=O)NCCCC[C@H](NC(=O)[C@H](CC(=O)O)NC(=O)[C@H](CO)NC(=O)[C@@H](NC(=O)[C@H](Cc1ccccc1)NC(=O)[C@@H](NC(=O)CNC(=O)[C@H](CCC(N)=O)NC(=O)[C@H](C)NC(=O)[C@@H](Cc1ccccc1)NC(C)=O)[C@@H](C)O)[C@@H](C)O)C(=O)N[C@@H](CO)C(=O)N[C@@H](CCCCN)C(=O)N[C@@H](Cc1ccc(O)cc1)C(=O)N[C@@H](CC(C)C)C(=O)N[C@@H](CC(=O)O)C(=O)N[C@@H](CCC(=O)O)C(=O)N[C@@H](CCCNC(=N)N)C(=O)N[C@@H](C)C(=O)N[C@@H](C)C(=O)N[C@@H](CCC(N)=O)C(=O)N[C@@H](CC(=O)O)C(=O)N[C@@H](Cc1ccccc1)C(=O)N[C@H](C(=O)N[C@@H](CCC(N)=O)C(=O)N[C@@H](Cc1c[nH]c2ccccc12)C(=O)N[C@@H](CC(C)C)C(=O)N[C@@H](CC(C)C)C(=O)N[C@@H](CCC(=O)O)C(=O)NCC(=O)NCC(=O)N1CCC[C@H]1C(=O)N[C@@H](CO)C(=O)N[C@@H](CO)C(=O)NCC(=O)N[C@@H](C)C(=O)N1CCC[C@H]1C(=O)N1CCC[C@H]1C(=O)N1CCC[C@H]1C(=O)N[C@@H](CO)C(N)=O)C(C)C)C(=O)O [compound 150]	–	–	–	11	2	14	–
CCCCCCCCCCCCCCCC(=O)NCCCC[C@H](NC(=O)[C@H](CO)NC(=O)[C@@H]1CCCN1C(=O)[C@@H]1CCCN1C(=O)[C@@H]1CCCN1C(=O)[C@H](C)NC(=O)CNC(=O)[C@H](CO)NC(=O)[C@H](CO)NC(=O)[C@@H]1CCCN1C(=O)CNC(=O)CNC(=O)[C@H](CCC(=O)O)NC(=O)[C@H](CC(C)C)NC(=O)[C@H](CC(C)C)NC(=O)[C@H](Cc1c[nH]c2ccccc12)NC(=O)[C@H](CCC(N)=O)NC(=O)[C@@H](NC(=O)[C@H](Cc1ccccc1)NC(=O)[C@H](CC(=O)O)NC(=O)[C@H](CCC(N)=O)NC(=O)[C@H](C)NC(=O)[C@H](C)NC(=O)[C@H](CCCNC(=N)N)NC(=O)[C@H](CCC(=O)O)NC(=O)[C@H](CC(=O)O)NC(=O)[C@H](CC(C)C)NC(=O)[C@H](Cc1ccc(O)cc1)NC(=O)[C@H](CCCCN)NC(=O)[C@H](CO)NC(=O)[C@H](Cc1ccc(O)cc1)NC(=O)[C@H](CC(=O)O)NC(=O)[C@H](CO)NC(=O)[C@@H](NC(=O)[C@H](Cc1ccccc1)NC(=O)[C@@H](NC(=O)CNC(=O)[C@H](CCC(N)=O)NC(=O)[C@H](C)NC(=O)CCc1ccc(O)cc1)[C@@H](C)O)[C@@H](C)O)C(C)C)C(=O)NCC(N)=O [compound 157] (Desaminotyrosyl-AQGTFTSDYSKYLDERAAQDFVQWLLEGGPSSGAPPPSK(Palmitoyl)G-NH2)	–	–	–	59	13	47	–
